biological target: WIL-FL (Homo sapiens, UniProt P01721); assay: Unlabeled LC Protease Sensitivity Assay (proteinase K); format: biochemical; conditions: small molecule 10 μM, WIL-FL 5 μM, proteinase K 50 nM, 2 hours at 37° C.
How it was run: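 Compound at 10 μM (1% DMSO) is mixed with 5 μM WIL-FL and 50 nM proteinase K in PBS pH 7.4/0.02% Pluronic F-127, 37 °C, 2 h, then quenched with PMSF. Remaining protein measured by SEC-UPLC peak area at 280 nm and expressed as fold protection relative to vehicle and no-protease controls.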

Structure (SMILES)	Protection (fold protection of LC from protease)
CCN(CC)c1ccc2c(C)c(CCN3C(=O)NC4(CCN(S(=O)(=O)c5ccccc5)C4)C3=O)c(=O)oc2c1 (stereo not shown) [Compound 201, 3-(2-(7-(diethylamino)-4-methyl-2-oxo-2H-chromen-3-yl)ethyl)-7-(phenylsulfonyl)-1,3,7-triazaspiro[4.4]nonane-2,4-dione]	B (3 ≤ B < 0.6)
CCN(CC)c1ccc2c(C)c(CCN3C(=O)NC4(CCN(S(=O)(=O)c5cccnc5)C4)C3=O)c(=O)oc2c1 (stereo not shown) [Compound 202, 3-(2-(7-(diethylamino)-4-methyl-2-oxo-2H-chromen-3-yl)ethyl)-7-(pyridin-3-ylsulfonyl)-1,3,7-triazaspiro[4.4]nonane-2,4-dione]	C (C ≥ 0.6)
CCN(CC)c1ccc2c(C)c(CCN3C(=O)NC4(CCN(S(=O)(=O)CC)C4)C3=O)c(=O)oc2c1 (stereo not shown) [Compound 203, 3-(2-(7-(diethylamino)-4-methyl-2-oxo-2H-chromen-3-yl)ethyl)-7-(ethylsulfonyl)-1,3,7-triazaspiro[4.4]nonane-2,4-dione]	C (C ≥ 0.6)
CCN(CC)c1ccc2c(C)c(CCN3C(=O)NC4(CCN(S(=O)(=O)NC)C4)C3=O)c(=O)oc2c1 (stereo not shown) [Compound 204, 3-(2-(7-(diethylamino)-4-methyl-2-oxo-2H-chromen-3-yl)ethyl)-N-methyl-2,4-dioxo-1,3,7-triazaspiro[4.4]nonane-7-sulfonamide]	B (3 ≤ B < 0.6)
CCN(CC)c1ccc2c(C)c(CCN3C(=O)NC4(CCN(c5ncnc6c5cnn6C)CC4)C3=O)c(=O)oc2c1 [Compound 216, 3-(2-(7-(diethylamino)-4-methyl-2-oxo-2H-chromen-3-yl)ethyl)-8-(1-methyl-1H-pyrazolo[3,4-d]pyrimidin-4-yl)-1,3,8-triazaspiro[4.5]decane-2,4-dione]	C (C ≥ 0.6)
CCN(CC)c1ccc2c(C)c(CCOC(=O)NCc3cccc(-c4ccccc4O)c3)c(=O)oc2c1 [Compound 218, 2-(7-(diethylamino)-4-methyl-2-oxo-2H-chromen-3-yl)ethyl ((2′-hydroxy-[1,1′-biphenyl]-3-yl)methyl)carbamate]	C (C ≥ 0.6)
CCN(CC)c1ccc2c(C)c(CCOC(=O)NCc3cccc(-c4ccccc4OS(=O)(=O)F)c3)c(=O)oc2c1 [Compound 219, 3′-((((2-(7-(diethylamino)-4-methyl-2-oxo-2H-chromen-3-yl)ethoxy)carbonyl)amino)methyl)-[1,1′-biphenyl]-2-yl sulfurofluoridate]	A (A < 0.3))
CCN(CC)c1ccc2c(C)c(CCOC(=O)NCc3cncc(-c4ccc[nH]c4=O)c3)c(=O)oc2c1 [Compound 220, 2-(7-(diethylamino)-4-methyl-2-oxo-2H-chromen-3-yl)ethyl ((2′-oxo-1′,2′-dihydro-[3,3′-bipyridin]-5-yl)methyl)carbamate]	A (A < 0.3))
CCN(CC)c1ccc2c(C)c(CCN3CC4(CCN(c5ncccn5)CC4)NC3=O)c(=O)oc2c1 [Compound 221, 3-(2-(7-(diethylamino)-4-methyl-2-oxo-2H-chromen-3-yl)ethyl)-8-(pyrimidin-2-yl)-1,3,8-triazaspiro[4.5]decan-2-one]	C (C ≥ 0.6)
CCN(CC)c1ccc2c(C)c(CCN3CC4(CCN(c5ncnc6[nH]ncc56)CC4)NC3=O)c(=O)oc2c1 [Compound 222, 3-(2-(7-(diethylamino)-4-methyl-2-oxo-2H-chromen-3-yl)ethyl)-8-(1H-pyrazolo[3,4-d]pyrimidin-4-yl)-1,3,8-triazaspiro[4.5]decan-2-one]	C (C ≥ 0.6)
CCN(CC)c1ccc2c(C)c(CCN3CC4(CCN(c5nccn6ccnc56)CC4)NC3=O)c(=O)oc2c1 [Compound 223, 3-(2-(7-(diethylamino)-4-methyl-2-oxo-2H-chromen-3-yl)ethyl)-8-(imidazo[1,2-a]pyrazin-8-yl)-1,3,8-triazaspiro[4.5]decan-2-one]	C (C ≥ 0.6)
Cc1cc(=O)oc2cc(C#N)ccc12 [Compound 224, 4-methyl-2-oxo-2H-chromene-7-carbonitrile]	A (A < 0.3))
Cc1cc(=O)oc2cc(C(=O)O)ccc12 [Compound 225, 4-methyl-2-oxo-2H-chromene-7-carboxylic acid]	A (A < 0.3))
Cc1cc(=O)oc2cc(C(=O)NCc3ccccn3)ccc12 [Compound 226, 4-methyl-2-oxo-N-(pyridin-2-ylmethyl)-2H-chromene-7-carboxamide]	A (A < 0.3))
Cc1cc(=O)oc2cc(C(=O)Nc3ccc4ccccc4c3)ccc12 [Compound 227, 4-methyl-N-(naphthalen-2-yl)-2-oxo-2H-chromene-7-carboxamide]	A (A < 0.3))
Cc1cc(=O)oc2cc(C(=O)NCc3ccncc3)ccc12 [Compound 228, 4-methyl-2-oxo-N-(pyridin-4-ylmethyl)-2H-chromene-7-carboxamide]	A (A < 0.3))
Cc1cc(=O)oc2cc(C(=O)Nc3cc(Cl)c(O)c(Cl)c3)ccc12 [Compound 229, N-(3,5-dichloro-4-hydroxyphenyl)-4-methyl-2-oxo-2H-chromene-7-carboxamide]	A (A < 0.3))
Cc1cc(=O)oc2cc(C(=O)NCc3ccc(O)cc3)ccc12 [Compound 230, N-(4-hydroxybenzyl)-4-methyl-2-oxo-2H-chromene-7-carboxamide]	A (A < 0.3))
C=CCN(CC=C)c1ccc2c(C)cc(=O)oc2c1 [Compound 231, 7-(diallylamino)-4-methyl-2H-chromen-2-one]	A (A < 0.3))
Cc1cc(=O)oc2cc(C(=O)NCCc3ccc(O)cc3)ccc12 [Compound 232, N-(4-hydroxyphenethyl)-4-methyl-2-oxo-2H-chromene-7-carboxamide]	A (A < 0.3))
Cc1cc(=O)oc2cc(C(=O)Nc3ccc4ccccc4n3)ccc12 [Compound 233, 4-methyl-2-oxo-N-(quinolin-2-yl)-2H-chromene-7-carboxamide]	A (A < 0.3))

Other lines, results leading:

Protection (fold protection of LC from protease)	Structure (SMILES)
B (3 ≤ B < 0.6)	CCN(CC)c1ccc2c(C)c(CCN3C(=O)NC4(CCN(C(=O)c5ncccn5)C4)C3=O)c(=O)oc2c1 (stereo not shown) [Compound 205, 3-(2-(7-(diethylamino)-4-methyl-2-oxo-2H-chromen-3-yl)ethyl)-7-(pyrimidine-2-carbonyl)-1,3,7-triazaspiro[4.4]nonane-2,4-dione]
A (A < 0.3))	CCN(CC)c1ccc2c(C)c(CCN3C(=O)NC4(CCN(C(=O)c5ncccn5)CC4)C3=O)c(=O)oc2c1 [Compound 206, 3-(2-(7-(diethylamino)-4-methyl-2-oxo-2H-chromen-3-yl)ethyl)-8-(pyrimidine-2-carbonyl)-1,3,8-triazaspiro[4.5]decane-2,4-dione]
B (3 ≤ B < 0.6)	CCN(CC)c1ccc2c(C)c(CCN3C(=O)NC4(CCN(C(=O)c5ccncn5)C4)C3=O)c(=O)oc2c1 (stereo not shown) [Compound 207, 3-(2-(7-(diethylamino)-4-methyl-2-oxo-2H-chromen-3-yl)ethyl)-7-(pyrimidine-4-carbonyl)-1,3,7-triazaspiro[4.4]nonane-2,4-dione]
B (3 ≤ B < 0.6)	CCN(CC)c1ccc2c(C)c(CCN3C(=O)NC4(CCN(C(=O)c5ccncn5)CC4)C3=O)c(=O)oc2c1 [Compound 208, 3-(2-(7-(diethylamino)-4-methyl-2-oxo-2H-chromen-3-yl)ethyl)-8-(pyrimidine-4-carbonyl)-1,3,8-triazaspiro[4.5]decane-2,4-dione]
B (3 ≤ B < 0.6)	CCN(CC)c1ccc2c(C)c(CCN3C(=O)NC4(CCN(C(=O)c5cncnc5)C4)C3=O)c(=O)oc2c1 (stereo not shown) [Compound 209, 3-(2-(7-(diethylamino)-4-methyl-2-oxo-2H-chromen-3-yl)ethyl)-7-(pyrimidine-5-carbonyl)-1,3,7-triazaspiro[4.4]nonane-2,4-dione]
B (3 ≤ B < 0.6)	CCN(CC)c1ccc2c(C)c(CCN3C(=O)NC4(CCN(C(=O)c5cncnc5)CC4)C3=O)c(=O)oc2c1 [Compound 210, 3-(2-(7-(diethylamino)-4-methyl-2-oxo-2H-chromen-3-yl)ethyl)-8-(pyrimidine-5-carbonyl)-1,3,8-triazaspiro[4.5]decane-2,4-dione]
B (3 ≤ B < 0.6)	CCN(CC)c1ccc2c(C)c(CCN3C(=O)NC4(CCN(C(=O)c5cnccn5)C4)C3=O)c(=O)oc2c1 (stereo not shown) [Compound 211, 3-(2-(7-(diethylamino)-4-methyl-2-oxo-2H-chromen-3-yl)ethyl)-7-(pyrazine-2-carbonyl)-1,3,7-triazaspiro[4.4]nonane-2,4-dione]
B (3 ≤ B < 0.6)	CCN(CC)c1ccc2c(C)c(CCN3C(=O)NC4(CCN(C(=O)c5cnccn5)CC4)C3=O)c(=O)oc2c1 [Compound 212, 3-(2-(7-(diethylamino)-4-methyl-2-oxo-2H-chromen-3-yl)ethyl)-8-(pyrazine-2-carbonyl)-1,3,8-triazaspiro[4.5]decane-2,4-dione]
C (C ≥ 0.6)	CCN(CC)c1ccc2c(C)c(CCN3C(=O)NC4(CCN(c5nccn6ccnc56)CC4)C3=O)c(=O)oc2c1 [Compound 215, 3-(2-(7-(diethylamino)-4-methyl-2-oxo-2H-chromen-3-yl)ethyl)-8-(imidazo[1,2-a]pyrazin-8-yl)-1,3,8-triazaspiro[4.5]decane-2,4-dione]
C (C ≥ 0.6)	CCN(CC)c1ccc2c(C)c(CCN3C(=O)NC4(CCN(c5nccn6cnnc56)CC4)C3=O)c(=O)oc2c1 [Compound 217, 8-([1,2,4]triazolo[4,3-a]pyrazin-8-yl)-3-(2-(7-(diethylamino)-4-methyl-2-oxo-2H-chromen-3-yl)ethyl)-1,3,8-triazaspiro[4.5]decane-2,4-dione]

Source: patent US11945806B2, “Stabilization of amyloidogenic immunoglobulin light chains” (The Scripps Research Institute, priority 2019, dated 2024)
